We go through five molecules from patent US10450570B2, “Compositions and methods for controlling vasculature” (YALE UNIVERSITY, priority 2016, dated 2019).

One assay relates to orthotopic Panc02 tumors. Nature of the assay: Murine orthotopic pancreatic tumor model, peritumoral lymphatics (LYVE1). The format is in vivo, mouse. The following applies: oral, 30 mg/kg/day, compared to vehicle controls. How it is done: The murine pancreatic tumor cell line Panc02 was obtained from Prof. Wiedenmann (Charité University Hospital, Berlin). 1×10^6 tumor cells were injected subcapsularly in the head region of the pancreas of anaesthetized female C57Bl/6 mice (7-9 weeks old, Charles River, France) using a 30-gauge needle. At day 3 after tumor inoculation, tumor-bearing mice were treated daily with SSR (30 mg/kg/day) or vehicle (0.6% methylcellulose) via oral gavage. At day 9, primary tumors were removed, weighted, and tumor volumes (V) were calculated using the formula V=0.52×(a^2×b), where a represents the smallest tumour diameter and b represents the largest tumour diameter. The incidence of tumor invasion into adjacent organs, hemorrhagic ascites, and regional celiac and mesenteric lymph node metastases were recorded, and confirmed by immunohistochemistry on paraffin sections. Paraffin-embedded […] sections were prepared and used for immunohistochemistry using the following antibodies: anti-LYVE1 (Upstate-Cell Signaling Solutions, Bio-connect, Huissen, The Netherlands) and anti-VEGFR3 (eBiosciences). The lymph vessel area in the peritumoral area was analysed using the KS300 software (Zeiss).

Assay [1] concerns HDLECs. Nature of the assay: Glycolytic flux measurement (5-3H-glucose). It counts as cell-based, human. How it is done:
(§1) Glycolysis was measured as previously described. Briefly, subconfluent HDLECs cultured in 12-well plates were incubated with 1 ml/well EBM2 medium (containing appropriate amount of serum and supplement) with 80 μCi/mmol 5-^3H-glucose (Perkin Elmer) for 2-3 hr. Then 0.8 ml/well medium was transferred into glass vials with hanging wells and filter papers soaked with H2O. After incubation in a cell culture incubator for at least 2 days to reach saturation, filter papers were taken out and the amount of evaporated ^3H2O was measured in a scintillation counter. Glucose oxidation, glutamine oxidation and fatty acid oxidation were measured essentially as reported. For measurement of glucose uptake, HDLECs were incubated with 2-[1-^14C]-deoxy-D-glucose (2.5 μCi/ml, Perkin Elmer) for 10 min. before PBS washing (at least 3 times to get rid of all radioactive medium) and then lysis with 500 μL 0.1 N NaOH. 400 μl NaOH cell lysate for each sample was transferred to scintillation vials containing scintillation liquid and measured.

The test system of assay [2] is Myc binding to the HK2 E-boxes in HDLECs. Nature of the assay: ChIP-qPCR of Myc binding to the HK2 gene. The format is cell-based, human. As for the experimental part: ChIP assays were performed using SimpleChIP® Plus Enzymatic Chromatin IP Kit (Cell Signaling) according to manufacturer's protocol with some minor modifications. Basically cells cultured on 20-cm dishes were fixed for 10 min by adding 37% formaldehyde solution to the culture medium to a final concentration of 1%. Fixation was quenched with glycine for 5 min at room temperature. Cells were washed twice with ice-cold PBS, scraped into 2 ml PBS, and centrifuged at 5,000 rpm for 10 min. The cell pellets from two 20-cm dishes were combined and lysed in 1 ml lysis buffer. The lysate was then centrifuged at 5,000 rpm for 5 min at 4° C. and the pellet was resuspended in 100 μl nuclease digestion buffer. The DNA was digested with 0.5 μl of Micrococcal Nuclease for 20 min at 37° C. to a length of approximately 150-900 bp (checked by agarose gel electrophoresis). Lysates were centrifuged and the pellet was resuspended in 500 μl ChIP buffer and sonicated for 3×30 s at power level 2 and 40% constancy. […] The amount of precipitated DNA from each sample was quantified by qPCR using primers flanking the Myc binding element in the HK2 gene. The reading was normalized to that of DNA purified from the previously saved cross-linked chromatin (2% input). The reading by DNA from IP using Myc antibody against that from IgG IP indicated the antibody efficiency for ChIP assay. […]

In assay [3] the test system is HDLECs. Nature of the assay: Three-dimensional bead sprouting assay. It counts as cell-based, human. The following applies: control siRNA HDLEC-coated beads. How it is done: HDLECs were trypsinized and mixed with collagen-coated Cytodex® microcarrier beads (Sigma) in a ratio of 2500 beads to 1×10^6 cells in warm EGM-2 medium in a 15 ml falcon tube. The mixture was incubated at 37° C. for 4 hr., with shaking every 20 min. to ensure even coating of the beads. After 4 hr., the coated beads were transferred to a 6-well plate in 2 ml of EGM-2 medium per well and incubated at 37° C. overnight. The next day, coated beads were embedded into a fibrinogen gel. For each well of a 24-well plate, 300 μl of 3 mg/mL fibrinogen in PBS was used, along with 100 μg/ml of aprotinin (Sigma) and 1.5 unit/ml of thrombin (Sigma). Approximately 250 coated beads were embedded in each well. The plate was then incubated at 37° C. for one hr. to generate a clot. After the gel solidified, human lung fibroblasts in EGM-2 medium were seeded on top at a concentration of 20,000 cells/well. The medium was changed every other day (full EGM-2 medium with 200 ng/mL of FGF2), and the plates were imaged on day 6 using a spinning disk confocal microscope (Perkin Elmer). ImageJ was used to measure the sprout length for the data analysis.

The subject of the next assay is mouse cornea. Nature of the assay: Corneal lymphangiogenesis model. It counts as in vivo. The following applies: FGF2-containing pellets implanted, 1 week. How it is done: Slow-releasing pellets containing FGF2 were made as previously described (Tang, Z. et al. JoVE, (2011)). Surgery to implant the pellets into the mouse cornea was performed as reported (Cao, R. et al. Nature protocols 6, 817-826, (2011)). Adult Prox1-CreER^T2(KI); HK2^flox/flox and control mice were i.p. injected with tamoxifen (150 μg/g body weight) every the other day (seven injections total) before the cornea surgery. 1 week after the pellet implantation, eyeballs were harvested for cornea dissection and immunostaining with LYVE1 (Angiobio, #11-034) and PECAM1 (BD Pharmigen, #553370) antibodies and then used for imaging (spinning disk confocal microscopy) and quantification analysis (ImageJ).

In a further assay the test system is Myc expression in HDLECs. Nature of the assay: Western blot of Myc expression in HDLECs. It counts as cell-based, human. How it is done: (§2) Human dermal lymphatic endothelial cells (HDLECs, HMVEC-dLyNeo-Der Lym Endo EGM-2MV) and Pooled human umbilical vein endothelial cells (HUVECs) were purchased from Lonza and cultured in EBM2 basal medium with EGM-2 MV BulletKit. Both cell types were tested negative for mycoplasma in Lonza. Culture medium was changed every the other day. Tissue culture plates were coated with 0.1% gelatin (Sigma) for 30 min at 37° C. and washed with Dulbecco's Phosphate-Buffered Saline (Life Technologies) before cell plating. For siRNA-mediated gene knockdown, FGFR1 siRNA (ON-TARGETplus human FGFR1 siRNA, Dharmacon; Hs_FGFR1_6, Qiagen), FGFR3 siRNA (Hs_FGFR3_6, Qiagen), HK2 siRNA (s6562 human HK2 siRNA, Life Technologies), c-Myc siRNA (ON-TARGETplus human Myc siRNA, Dharmacon), AllStar negative control siRNA (Qiagen), and ON-TARGETplus Non-targeting pool (Dharmacon) were transfected by lipofectamine RNAimax reagent (Life Technologies). Human FGF2 was provided by Kaken Pharmaceutical Co, Ltd (Japan) and ordered from Peprotech. Human VEGFC, VEGFD, IGF1, IGF2 and PDGFBB were purchased from Peprotech. To assay the effect of FGFR1 knockdown on glycolytic enzyme expression, HDLECs, transfected with control or FGFR1 siRNA 3 days in advance, were replated and collected for protein analysis 24 hr later when the cell confluency reached ˜80%. […] ImageJ was used for densitometry quantification of western blot bands.

Assay [4] deals with HK2 and other glycolytic enzymes in HUVECs. Nature of the assay: Western blot of glycolytic enzyme expression in HUVECs. The format is cell-based, human. As for the experimental part: as §2
Another assay deals with HUVECs. Nature of the assay: Glycolytic flux measurement in HUVECs. The format is cell-based, human.
In assay [5] the test system is HDLECs. Nature of the assay: Mass spectrometry of glycolytic metabolites and ATP. It counts as cell-based, human. As for the experimental part:
HDLECs were quenched by a rapid wash with ice-cold PBS and then collected in 150 μl of an ice-cold solution containing 20% methanol, 0.1% formic acid, 1 mM phenylalanine, 3 mM NaF and 100 μM EDTA. ^2H4-Taurine (10 μM, CDN Isotopes) was used as a loading control. All the samples were lyophilized and resuspended in 50 μL of water prior the LC-MS/MS analysis. Samples were injected onto a Cogent Diamond Hydride™ column (2.2 μm particle size, 2.1 mm×10 cm) at a flow rate of 0.5 mL/min. Glycolytic intermediates were eluted isocratically with a 95% aqueous/5% organic solvent mixture. The aqueous solution contained 15 mM ammonium formate. The organic solution contained 60% acetonitrile, 35% isopropyl alcohol and 15 mM ammonium formate. Samples were ionized by electrospray into an ABSCIEX 5500 QTRAP equipped with a SelexION for differential mobility separation (DMS) and acquired using multiple reaction monitoring (MRM) in negative mode, as described previously. DMS-based separation of fructose-6-phosphate from glucose-6-phosphate, as well as the separation of ATP, ADP and AMP nucleotides, was achieved using no modifier. Isopropyl alcohol was used as modifier for the DMS-based separation of the remaining glycolytic intermediates. […]

The test system of a further assay is Myc expression in HUVECs. Nature of the assay: Western blot of Myc expression in HUVECs. The format is cell-based, human. As for the experimental part: as §2
In assay [6] the test system is HK2 and other glycolytic enzymes in HDLECs. Nature of the assay: Western blot of glycolytic enzyme expression in HDLECs. The format is cell-based, human. The settings on record: protein. How it is done:
as §2

Assay [7] relates to HDLECs. Nature of the assay: Glucose uptake measurement (2-[1-14C]-deoxy-D-glucose). The format is cell-based, human. As for the experimental part:
as §1

The test system of another assay is zebrafish. Nature of the assay: Lymphatic development in zebrafish embryos. It counts as in vivo. The settings on record: 0.25 μM, 53 hpf Tg (fli1a:EGFP) embryos, vs DMSO.

As for `COc1c(C)c(C(=O)c2ccc(N)c(C(=O)[O-])c2)n2ccccc12.[Na+]` [SSR128129E], in the assay on orthotopic Panc02 tumors, the “lymphatic vasculature in the peri-tumoral area (LYVE1)” value is “significant reduction of the lymphatic vasculature in the peri-tumoral area”.

As to “IGF1: insulin-like growth factor 1, purchased from Peprotech”, in the assay with HDLECs [1], the glycolytic flux entry is “no effect”.

Regarding “FGF2: Human FGF2 provided by Kaken Pharmaceutical and ordered from Peprotech”, the glycolytic flux entry with HDLECs [1] was “doubled”. Besides, in assay [2], the “amount of Myc binding to the HK2 E-boxes” value is listed as “increased by FGF2 treatment”. The sprouting response result in the assay with HDLECs [3] is given as “induced a strong sprouting response”. In the assay with mouse cornea, the “lymphangiogenesis in the mouse cornea” value is listed as “induced robust stimulation of lymphangiogenesis”. Besides, in the assay with Myc expression in HDLECs, the Myc protein expression entry is reported as “increased Myc protein expression”. Also, the “HK2 protein expression in HUVECs” value in [4] was “selectively induced HK2 expression albeit to a lesser extent than in LECs”. For the same molecule, in the assay on HUVECs, the “glycolysis in HUVECs” value is given as “enhanced glycolysis”. In the assay on HDLECs [5], the ATP production result is “increased”; the “steady-state levels of glycolytic metabolites and lactate” value is “all increased by FGF2 stimulation”. For the same molecule, the “Myc expression in HUVECs” value with Myc expression in HUVECs was “increased Myc expression”. For the same molecule, the “glycolytic enzyme (HK2) expression” value in [6] is listed as “robust increase in HK2 expression, with minimal changes of other enzymes' expression”. For the same molecule, the glucose uptake entry in the assay with HDLECs [7] was “significantly increased glucose uptake”.

On to `Cc1c[nH]c(/C=C2\C(=O)Nc3ccccc32)c1CCC(=O)O` [SU5402], for which the “lymphatic development in zebrafish (parachordal line length)” value in the assay with zebrafish is on record as “impairs lymphatic development in zebrafish”.

As for “IGF2: insulin-like growth factor 2, purchased from Peprotech”, the glycolytic flux entry in the assay with HDLECs [1] was “reduced flux”.
